Where “and” joins values, the source holds several entries; their conditions need not be identical. Identical values can stand only once. Like-named read-outs stand apart in the source and are kept apart here.
How the values were obtained:
[1] = tested on: SARS-CoV-2 WA1/2020 (lineage A); assay: microbe, parasite or virus in culture; type: cell-based; conditions: for Virus yield reduction: vehicle = 0
[2] = tested on: SARS-CoV-2 CA/2020 (α, lineage B.1.1.7); assay: microbe, parasite or virus in culture; type: cell-based
[3] = tested on: SARS-CoV-2 SA/2020 (β, lineage B.1.351); assay: microbe, parasite or virus in culture; type: cell-based; conditions: Severe acute respiratory syndrome coronavirus 2, Vero C1008; SA/2020, VeroE6, mean n=3
[4] = tested on: SARS-CoV-2 BZ/2021 (γ, lineage P.1); assay: microbe, parasite or virus in culture; type: cell-based; conditions: Severe acute respiratory syndrome coronavirus 2, Vero C1008; BZ/2021, VeroE6, mean n=3
[5] = tested on: SARS-CoV-2-Nluc (WA1/2020-nano luciferase); assay: microbe, parasite or virus in culture; type: cell-based; conditions: for A549-hACE2 SARS-CoV-2 Nluc (EC50 determination), normalized signal: replicate values of the experiments
[6] = tested on: SARS-CoV-2 gamma isolate (BZ/2021, lineage P.1); assay: microbe, parasite or virus in culture; type: cell-based; conditions: Severe acute respiratory syndrome coronavirus 2
[7] = tested on: well-differentiated primary human airway epithelium cultures; type: cell-based
[8] = tested on: SARS-CoV-2 (WA1/2020 and VOC α, β, γ); assay: microbe, parasite or virus in culture; type: cell-based; conditions: Severe acute respiratory syndrome coronavirus 2, Vero C1008; read-out: Half-maximal effective concentrations (EC50), range
[9] = set-up: method as in Mackman et al 2021 (JMC 2021, 64(8), 5001-5017); conditions: rats, ref Mackman et al 2021 (JMC 2021, 64(8), 5001-5017); cited from earlier work
[10] = set-up: method as in Mackman et al 2021 (JMC 2021, 64(8), 5001-5017); conditions: cynomolgus macaques, ref Mackman et al 2021 (JMC 2021, 64(8), 5001-5017); cited from earlier work
[11] = cited from earlier work
[12] = in vitro; conditions: human
[13] = in vitro; conditions: human, % cell viability, HEp-2, 33.333 µM, 72 h
[14] = in vitro; conditions: human, % cell viability, 72 h
[15] = in vitro; conditions: human; remark: listed apart in the source
[16] = Cytotoxicity assay (PrestoBlue), HEp-2; conditions: human, HEp-2 cells
[17] = Cytotoxicity assay (PrestoBlue), HCT-8; conditions: human, HCT-8 cells
[18] = Cytotoxicity assay (PrestoBlue), VeroE6; conditions: African green monkey, VeroE6 cells
[19] = tested on: VeroE6 cells; assay: Cytotoxicity assay (PrestoBlue), VeroE6; conditions: 72 h
[20] = Cytotoxicity assay (PrestoBlue), BHK-21; conditions: hamster, BHK-21 cells
[21] = Cytotoxicity assay (PrestoBlue), “F3” HAE; conditions: human
[22] = tested on: “F3” primary HAE cells; assay: Cytotoxicity assay (PrestoBlue), “F3” HAE; conditions: 72 h; for % cell viability: F3 HAE
[23] = Cytotoxicity assay (PrestoBlue), “M2” HAE; conditions: human, % cell viability, M2 HAE, 72 h
[24] = Cytotoxicity assay (PrestoBlue), “M6” HAE; conditions: human
[25] = tested on: “M6” primary HAE cells; assay: Cytotoxicity assay (PrestoBlue), “M6” HAE; conditions: M6 HAE, 72 h
[26] = Single-dose plasma pharmacokinetics in ferrets; conditions: ferret; for plasma concentration of GS-621763: GS-621763 PO 30 mg/kg, 30 mg/kg

CC(C)C(=O)OCC1OC(C#N)(c2ccc3c(N)ncnn23)C(OC(=O)C(C)C)C1OC(=O)C(C)C (stereo not drawn) [GS-621763]
EC50 ([1]; Severe acute respiratory syndrome coronavirus 2, Vero C1008, WA1/2020, VeroE6, mean n=3): 0.73 µM | Virus yield reduction ([1]; WA1/2020, VeroE6, 0.617284 µM): -0.1154 | Virus yield reduction ([1]; WA1/2020, VeroE6, 1.85185 µM): -1.903 | reduction in titer in vitro (to the limit of detection) [2]: ~ 1 log | EC50 ([2]; Severe acute respiratory syndrome coronavirus 2, Vero C1008, CA/2020, VeroE6, mean n=3): 0.21 µM | EC50 [3]: 0.11 µM | EC50 [4]: 0.22 µM | A549-hACE2 SARS-CoV-2 Nluc (EC50 determination), normalized signal ([5]; Conc 0.023 µM): 100.31 and 91.27 and 105.35 and 111.17 and 106.25 and 121.34 and 128.97 and 56.85 | A549-hACE2 SARS-CoV-2 Nluc (EC50 determination), normalized signal ([5]; Conc 0.069 µM): 81.07 and 111.32 and 107.14 and 109.98 and 64.03 and 99.75 and 127.29 and 97.36 | A549-hACE2 SARS-CoV-2 Nluc (EC50 determination), normalized signal ([5]; Conc 0.206 µM): 99.03 and 101.58 and 96.21 and 106.69 and 74.78 and 94.61 and 130.86 and 135.24 | A549-hACE2 SARS-CoV-2 Nluc (EC50 determination), normalized signal ([5]; Conc 0.617 µM): 93.09 and 77.54 and 84.50 and 82.94 and 7.92 and 26.38 and 11.95 and 19.80 | A549-hACE2 SARS-CoV-2 Nluc (EC50 determination), normalized signal ([5]; Conc 1.852 µM): 11.60 and 8.15 and 9.31 and 12.89 and 0.89 and 0.94 and 1.04 and 0.76 | A549-hACE2 SARS-CoV-2 Nluc (EC50 determination), normalized signal ([5]; Conc 5.556 µM): 0.61 and 1.05 and 0.64 and 0.93 and 0.44 (2×) and 0.49 and 0.36 | A549-hACE2 SARS-CoV-2 Nluc (EC50 determination), normalized signal ([5]; Conc 16.667 µM): 0.46 and 0.65 and 0.58 and 0.40 and 0.32 (2×) and 0.31 and 0.28 | A549-hACE2 SARS-CoV-2 Nluc (EC50 determination), normalized signal ([5]; Conc 50.000 µM): 0.15 (3×) and 0.14 and 0.29 (2×) and 0.24 and 0.26 | EC50 ([5]; Severe acute respiratory syndrome coronavirus 2, WA1/2020-nano luciferase, A549-ACE2, mean ± SD): 0.72 µM | EC50 [6]: 3.01 µM | basolateral drug concentration at which epithelium integrity (TEER) was fully preserved [7]: ≥ 3 µM | EC50 [8]: 0.11 to 0.73 µM | oral F [9]: 57% | oral F [10]: 28% | increase of oral F compared to GS-441524 ([11]; rats and cynomolgus macaques, ref Mackman et al 2021): greater than 5 fold | oral bioavailability (in words) ([11]; two relevant animal species including non-human primates): high oral bioavailability | CC50 at 48 h [12]: > 47 µM | viability at 72 h, 33.333 µM [13]: 112% | viability at 72 h, 1.235 µM ([14]; HCT-8, 1.235 µM): 115% | viability at 72 h, 3.704 µM ([14]; HCT-8, 3.704 µM): 114% | viability at 72 h, 33.333 µM ([14]; HCT-8, 33.333 µM): 106% | viability at 72 h, 0.046 µM ([15]; female, % cell viability): 84% | viability at 72 h, 3.704 µM ([15]; female, % cell viability): 120% | viability at 72 h, […] ([15]; female, % cell viability): 95% | viability at […] ([15]; female, % cell viability): 101% | viability at 1.235 µM ([15]; female, % cell viability, DF2 HAE, 1.235 µM, 72 h): 103% | viability at 3.704 µM ([15]; female, % cell viability, DF2 HAE, 3.704 µM, 72 h): 116% | viability at 33.333 µM ([15]; female, % cell viability, DF2 HAE, 33.333 µM, 72 h): 112% | CC50 at 72 h [15]: 86 µM | viability at 72 h, 100 µM ([15]; % cell viability): 4% | viability at 72 h, 0.046 µM ([16]; % cell viability, HEp-2, 0.046 µM, 72 h): 53% | viability at 72 h, 1.235 µM ([16]; % cell viability, HEp-2, 1.235 µM, 72 h): 95% | viability at 72 h, 3.704 µM ([16]; % cell viability, HEp-2, 3.704 µM, 72 h): 104% | viability at 72 h, 33.333 µM ([16]; % cell viability, HEp-2, 33.333 µM, 72 h): 111% | CC50 at 72 h ([16]; CC50, HEp-2, 72 h): 79.4 µM | viability at 72 h, 0.046 µM ([17]; % cell viability, HCT-8, 0.046 µM, 72 h): 78% | viability at 72 h, 3.704 µM ([17]; % cell viability, HCT-8, 3.704 µM, 72 h): 104% | viability at 72 h, 33.333 µM ([17]; % cell viability, HCT-8, 33.333 µM, 72 h): 99% | viability at 72 h, 100 µM ([17]; % cell viability, HCT-8, 100 µM, 72 h): 2% | CC50 at 72 h ([17]; CC50, HCT-8, 72 h): 74.6 µM | CC50 at 72 h [18]: > 100 µM | viability at 72 h, 0.046 µM ([18]; % cell viability, VeroE6, 0.046 µM, 72 h): 62% | viability at 72 h, 1.235 µM ([18]; % cell viability, VeroE6, 1.235 µM, 72 h): 90% | viability at 72 h, 3.704 µM ([18]; % cell viability, VeroE6, 3.704 µM, 72 h): 95% | viability at 72 h, 33.333 µM ([18]; % cell viability, VeroE6, 33.333 µM, 72 h): 105% | % cell viability ([19]; VeroE6, 0.046 µM, 0.046 µM): 61% and 56% | % cell viability ([19]; VeroE6, 1.235 µM, 1.235 µM): 82% | % cell viability ([19]; VeroE6, 3.704 µM, 3.704 µM): 97% | % cell viability ([19]; VeroE6, 33.333 µM, 33.333 µM): 103% | % cell viability ([19]; VeroE6, 100 µM, 100 µM): -4% and -6% and -7% | CC50 at 72 h [20]: > 100 µM | viability at 72 h, 0.046 µM ([20]; % cell viability, BHK-21, 0.046 µM, 72 h): 76% | viability at 72 h, 1.235 µM ([20]; % cell viability, BHK-21, 1.235 µM, 72 h): 90% | viability at 72 h, 3.704 µM ([20]; % cell viability, BHK-21, 3.704 µM, 72 h): 90% | viability at 72 h, 33.333 µM ([20]; % cell viability, BHK-21, 33.333 µM, 72 h): 91% | viability at 72 h, 100 µM ([20]; % cell viability, BHK-21, 100 µM, 72 h): 85% | viability at 72 h, 1.235 µM ([21]; female, % cell viability, F3 HAE, 1.235 µM): 121% | viability at 72 h, 3.704 µM ([21]; female, % cell viability, F3 HAE, 3.704 µM): 111% | viability at 72 h, 33.333 µM ([21]; female, % cell viability, F3 HAE, 33.333 µM): 81% | viability at 72 h, 0.046 µM ([21]; female, “F3” primary human airway epithelial (HAE) cells, % cell viability, F3 HAE, 0.046 µM): 83% | viability at 72 h, 100 µM ([21]; % cell viability, F3 HAE, 100 µM): 1% | CC50 at 72 h ([21]; CC50, “F3” HAE): 43.8 µM | % cell viability ([22]; 0.046 µM): 79% | % cell viability ([22]; 3.704 µM): 115% | % cell viability ([22]; 33.333 µM): 86% | CC50 ([22]; “F3” HAE): 43.8 µM | viability at 72 h, 100 µM ([23]; 100 µM): 0% | viability at 72 h, 1.235 µM ([23]; male, 1.235 µM): 107% | viability at 72 h, 3.704 µM ([23]; male, 3.704 µM): 117% | viability at 72 h, 33.333 µM ([23]; male, 33.333 µM): 89% | CC50 at 72 h [24]: 92.3 µM | viability at 72 h, 100 µM ([24]; % cell viability, M6 HAE, 100 µM, 72 h): 42% | viability at 72 h, 1.235 µM ([24]; male, % cell viability, M6 HAE, 1.235 µM, 72 h): 97% | viability at 72 h, 33.333 µM ([24]; male, % cell viability, M6 HAE, 33.333 µM, 72 h): 94% | % cell viability ([25]; 1.235 µM): 96% | % cell viability ([25]; 3.704 µM): 70% and 86% | % cell viability ([25]; 33.333 µM): 99% | % cell viability ([25]; 100 µM): 46% and 45% | oral bioavailability (in words) [26]: excellent oral bioavailability | plasma concentration of GS-621763 ([26]; 0.25 h): 9.27 and 11.5 and 13.7 | plasma concentration of GS-621763 ([26]; 1 h): 5.98 and 3.18 and 4.36 | plasma GS-621763 (intact prodrug) transiently observed ([26]; GS-621763 p.o. 30 mg/kg, first two hours): approximately 10 nM | GS-441524 in blood relative to intact prodrug ([26]; after oral administration of GS-621763): more than three orders of magnitude higher
